In ChEMBL document CHEMBL1153660, “Synthesis and pharmacological properties of BW315c and other inotropic 2-arylimidazo[1,2-a]pyrazines” (Bioorg Med Chem Lett, 1993):
Calls of active or inactive are those of the source. No cut-off for these calls is given here.

Experiments:
[1] = system: Canis familiaris; test: Time required for inotropic response at 0.80 mg/kg dose; format: functional, Canis lupus familiaris; details: dose 0.8 mg/kg
[2] = system: Canis familiaris; test: Time required for vasodilator response at 0.80 mg/kg dose; format: functional, Canis lupus familiaris; details: dose 0.8 mg/kg
[3] = species: Canis familiaris; test: 10% increase in heart rate in open chest dogs; format: functional; details: Canis lupus familiaris
[4] = species: Canis familiaris; test: 30% decrease in diastolic blood pressure in open chest dogs; format: functional; details: Canis lupus familiaris, Artery
[5] = system: Canis familiaris; test: In vivo 50% increase in left ventricular pressure in open chest dogs; format: functional; details: Canis lupus familiaris, Heart left ventricle
[6] = species: Cavia porcellus; test: In vitro 50% increase in basal contractile force of paced guinea pig papillary muscle; format: functional, Muscle tissue
[7] = Ratio of ED50 (increased ventricular pressure) to ED30 (diastolic blood pressure); format: functional, Artery
[8] = species: Cavia porcellus; test: In vitro 50% increase in basal contractile force of paced guinea pig papillary muscle (inactive); format: functional; details: Muscle tissue
[9] = system: Canis familiaris; test: Time required for inotropic response at 0.80 mg/kg dose; range 20-30; format: functional, Canis lupus familiaris; details: dose 0.8 mg/kg
[10] = system: Canis familiaris; test: Time required for vasodilator response at 0.80 mg/kg dose; range 15-30; format: functional, Canis lupus familiaris; details: dose 0.8 mg/kg
[11] = target: Phosphodiesterase 3 (Homo sapiens, UniProt Q14432+Q13370); test: Concentration of compound required for 50% inhibition of type III cAMP phosphodiesterase from dog ventricles, activity expressed as pIC50; format: protein assay, Canis lupus familiaris
[12] = system: Canis familiaris; test: Time required for inotropic response at 0.80 mg/kg dose; range 30-45; format: functional, Canis lupus familiaris; details: dose 0.8 mg/kg
[13] = system: Canis familiaris; test: Time required for vasodilator response at 0.80 mg/kg dose; range 30-45; format: functional, Canis lupus familiaris; details: dose 0.8 mg/kg
[14] = species: Cavia porcellus; test: In vitro 50% increase in basal contractile force of paced guinea pig papillary muscle (insoluble); format: functional, organism-based; details: Muscle tissue
[15] = system: Canis familiaris; test: Time required for inotropic response at 0.80 mg/kg dose; range 45-60; format: functional, Canis lupus familiaris; details: dose 0.8 mg/kg
[16] = system: Canis familiaris; test: Time required for vasodilator response at 0.80 mg/kg dose; range 2-15; format: functional, Canis lupus familiaris; details: dose 0.8 mg/kg
[17] = system: Canis familiaris; test: Time required for vasodilator response at 0.80 mg/kg dose; range 10-30; format: functional, Canis lupus familiaris; details: dose 0.8 mg/kg

For COc1cc(C(N)=O)ccc1-c1cn2ccncc2n1, the Duration [1] was >30 min, the Duration [2] was <5 min and the ED10 [3] was 0.02 mg/kg. For the same compound, the ED30 [4] was 0.05 mg/kg, the ED50 [5] was 0.02 mg/kg and the pA50 [6] was 4.68. For the same compound, the Ratio [7] was 0.4.

With COc1cc(OS(C)(=O)=O)ccc1-c1nc2cc[nH]cc-2n1 the ED50 [5] was 0.002 mg/kg and the pA50 [6] was <5.

With COc1cc(OS(C)(=O)=O)ccc1-c1cn2ccncc2n1 the pA50 [8] was “inactive”.

In the case of COc1cc([S+](C)[O-])ccc1-c1nc2cnccc2[nH]1 (stereo unspecified) [ISOMAZOLE], the Duration [9] is reported as 20 min, the Duration [10] is reported as 15 min and the ED10 [3] is reported as 0.06 mg/kg. For the same compound, the ED30 [4] was 0.19 mg/kg, the ED50 [5] was 0.06 mg/kg and the pA50 [6] was 4.64. For the same compound, the “Log IC50” value [11] was -4.5 and the Ratio [7] was 0.32.

COc1cc([S+](C)[O-])ccc1-c1nc2cccnc2[nH]1 (stereo unspecified) [SULMAZOLE] showed a Duration [1] of 30 min, a Duration [2] of 30 min and an ED10 [3] of 0.5 mg/kg. It also gave an ED30 [4] of 1.25 mg/kg, an ED50 [5] of 0.8 mg/kg and a pA50 [6] of 4.7.

With COc1cc([S+](C)[O-])ccc1-c1nc2c(OC)nccc2[nH]1 (stereo unspecified) the ED50 [5] was 0.13 mg/kg and the pA50 [6] was 3.91.

For COc1cc([S+](C)[O-])ccc1-c1cn2ccncc2n1 (stereo unspecified), the Duration [1] was 5 min, the Duration [2] was >90 min and the ED10 [3] was 0.28 mg/kg. The ED30 [4] was 0.03 mg/kg, the ED50 [5] was 0.75 mg/kg and the pA50 [6] was 5.39. The “Log IC50” value [11] was -5 and the Ratio [7] was 25.

Work on COc1cc(C(N)=O)ccc1-c1cn2ccnc(OC)c2n1 yielded a Duration [12] of 30 min, a Duration [13] of 30 min and an ED10 [3] of 0.06 mg/kg. The ED30 [4] was 0.15 mg/kg, the ED50 [5] was 0.06 mg/kg and the pA50 [14] was “Insoluble”. It also gave a Ratio [7] of 0.04.

With COc1cc(OS(C)(=O)=O)ccc1-c1cn2ccnc(OC)c2n1 the Duration [15] was 45 min, the Duration [16] was 2 min and the ED10 [3] was 0.05 mg/kg. The ED30 [4] was 0.06 mg/kg, the ED50 [5] was 0.07 mg/kg and the pA50 [14] was “Insoluble”. It also gave a Ratio [7] of 1.2.

For COc1cc([S+](C)[O-])ccc1-c1cn2cccnc2n1 (stereo unspecified), the ED50 [5] was 2.4 mg/kg and the pA50 [6] was 4.63.

With COc1cc(C(N)=O)ccc1-c1nc2cc[nH]cc-2n1 the ED50 [5] was 0.01 mg/kg and the pA50 [6] was 4.43.

In the case of COc1cc([S+](C)[O-])ccc1-c1cn2ccnc(OC)c2n1 (stereo unspecified), the Duration [1] is reported as 60 min, the Duration [2] is reported as 2 min and the ED10 [3] is reported as 0.11 mg/kg. It also gave an ED30 [4] of 1.17 mg/kg, an ED50 [5] of 0.09 mg/kg and a pA50 [6] of 4.82. For the same compound, the “Log IC50” value [11] was -4.4 and the Ratio [7] was 0.08.

Cc1[nH]c(=O)c(C#N)cc1-c1ccncc1 [MILRINONE] showed a Duration [15] of 45 min, a Duration [17] of 10 min and an ED10 [3] of 0.02 mg/kg. The ED30 [4] was 0.06 mg/kg, the ED50 [5] was 0.02 mg/kg and the Ratio [7] was 0.3.
